pIC50: −log10 of the molar value. Entries after “also recorded” stand apart in the source; their conditions may differ. Blank lines part the entries; values can stand above or below the compound they belong to.
How the values were obtained:
[1] = tested on: 1A9/B10 ovarian cancer cells; conditions: βArg282Gln mutation, EpoB-selected 1A9/B10 cells; cited from earlier work
tubulin [2] = target: T1, tubulin (Homo sapiens, UniProt P07437); assay: Cell-based tubulin polymerization assay, 1A9 cells
T1 construct: endogenous in cells; host or cells: 1A9 human ovarian carcinoma cells
T1 sequence (P68363 whole entry): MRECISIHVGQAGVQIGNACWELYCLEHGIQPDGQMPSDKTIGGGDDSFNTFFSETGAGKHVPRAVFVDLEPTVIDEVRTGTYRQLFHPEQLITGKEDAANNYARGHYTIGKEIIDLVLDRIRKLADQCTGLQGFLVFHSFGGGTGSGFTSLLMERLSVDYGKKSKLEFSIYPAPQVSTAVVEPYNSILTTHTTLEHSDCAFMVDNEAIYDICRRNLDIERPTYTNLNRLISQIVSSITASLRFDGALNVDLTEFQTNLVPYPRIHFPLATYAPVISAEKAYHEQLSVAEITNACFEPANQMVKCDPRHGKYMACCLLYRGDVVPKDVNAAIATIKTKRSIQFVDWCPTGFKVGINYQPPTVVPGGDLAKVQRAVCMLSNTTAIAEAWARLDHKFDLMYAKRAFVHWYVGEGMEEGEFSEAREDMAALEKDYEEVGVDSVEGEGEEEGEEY
T1 sequence (P07437 whole entry): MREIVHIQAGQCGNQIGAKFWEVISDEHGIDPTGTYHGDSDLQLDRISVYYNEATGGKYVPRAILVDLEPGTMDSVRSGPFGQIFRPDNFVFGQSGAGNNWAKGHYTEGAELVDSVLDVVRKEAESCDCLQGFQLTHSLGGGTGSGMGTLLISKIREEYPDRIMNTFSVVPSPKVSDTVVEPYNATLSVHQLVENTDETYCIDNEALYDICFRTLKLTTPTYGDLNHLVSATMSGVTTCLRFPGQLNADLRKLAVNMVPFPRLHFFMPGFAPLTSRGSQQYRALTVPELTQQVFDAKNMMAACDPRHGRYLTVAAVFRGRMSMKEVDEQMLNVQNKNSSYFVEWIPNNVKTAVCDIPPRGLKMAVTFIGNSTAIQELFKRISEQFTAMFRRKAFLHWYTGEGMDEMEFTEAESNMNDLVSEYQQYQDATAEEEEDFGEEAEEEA
Method: (§1) Drug-sensitive parental 1A9 (top panel) and the Epo A-resistant clones, 1A9/A8 and 1A9/A8E (lower panel), were treated for 5 hours with or without (0) various concentrations of Epo A as indicated. After cell lysis, the polymerized (P) and the soluble (S) protein fractions were separated by centrifugation, resolved by SDS/PAGE, and immunoblotted with an antibody against alpha-tubulin. The percent of polymerized tubulin (% P) was determined by dividing the densitometric value of polymerized tubulin by the total tubulin content (the sum of P plus S). The results shown are from a representative experiment of four independent observations.
(§2) In order to examine whether the tubulin gene status correlates with the ability of epothilone to induce tubulin polymerization in the three related cell lines (1A9, 1A9-A8, and 1A9-A8^E), cell-based tubulin polymerization assays were performed (FIG. 1). After treating the cells with escalating doses of Epo A, the cells were harvested in a low salt buffer and then centrifuged to separate the pellet fraction containing the polymerized form of tubulin, from the supernatant that contains the soluble form of tubulin. […]
(§3) Quantitation of the degree of in vivo tubulin polymerization in response to Epothilone A was performed as described by Giannakakou et al. ((1997) J. Biol. Chem. 272:17118-17125). […]

1A9-A8^E cells [3] = assay: Mitotic index analysis, 1A9-A8^E cells; format: cell-based, human; conditions: 24 hr
Method: (§4) Cells were plated on glass coverslips and treated with drugs for 24 hours. Cells were fixed with ice-cold methanol and DNA was stained with Sytox Green (Molecular Probes, Eugene, Oreg.). Epifluorescence microscopy was used to count a minimum of 500 cells per drug treatment and mitotic figures were scored.

1A9 cells [4] = assay: Cell cycle analysis by flow cytometry (G2/M arrest), 1A9 cells; format: cell-based, human
Method: (§5) Cell cycle analysis by flow cytometry was performed in the parental 1A9 and the 1A9-Epo^R clones, following overnight treatment with Epo A or Vincristine (VCR) as indicated. […] 10,000 events were recorded for each condition, the histogram is representative of three independent experiments.
(§6) Cells were plated in 6-well plates. The following day, they were treated with various concentrations of epothilone A and vincristine for 18 hours. Following treatment, both adherent and floating cells were harvested and pelleted by centrifugation. Cell pellets were suspended in 1 ml of 0.1 mg/ml propidium iodide containing 0.6% NP40 (ICN Pharmaceuticals, Costa Mesa, Calif.) with 1 mg/ml RNase A (Sigma Chemical Co.), then incubated in the dark at room temperature for 30 minutes. Data acquisition and analysis were performed on a FACScan instrument equipped with CellQuest software (Becton Dickinson Immunocytometry Systems, Franklin Lakes, N.J.). Cell cycle analysis was performed with Flowjo (Treestar). All cell cycle experiments were performed at least three times.

1A9-A8 cells [5] = assay: cells; format: cell-based, human; conditions: for pIC50: 1A9-A8 cells, 72 hour exposure to the drug; for Relative Resistance (1A9-A8): ratio of IC50 against 1A9-A8 divided by IC50 against parental 1A9
Method: (§7) The epothilone A resistant cell line, 1A9-A8, was selected from the human ovarian carcinoma 1A9 cells as described by Giannakakou et al. ((2000) Proc. Natl. Acad. Sci. USA 97:2904-2909). The 1A9-A8^E clone (expressing both wt and mutant alleles) was an intermediate isolate in the selection process of 1A9-A8 (mutant allele only) cells. These cells were cultured in RPMI 1640 medium (Cellgro, Herndon, Va.) supplemented with 10% fetal bovine serum (Invitrogen, Carlsbad, Calif.) and 1% Penicillin-Streptomycin (Cellgro), and grown as monolayers at 37° C. in a 5% CO2 tissue culture incubator. The mouse monoclonal anti-α-tubulin (DM1α) antibody used is from Sigma Chemical Co. (St. Louis, Mo.). Both epothilones A and B were a generous gift from the laboratory of K. C. Nicolaou (The Scripps Research Institute, La Jolla, Calif.). Paclitaxel (Taxol®) was purchased from Sigma Chemical Co. and vincristine from Eli-Lilly (Indianapolis, Ind.).
(§8) Cytotoxicity assays using the protein-staining sulforhodamine B (SRB) method were performed in 96-well plates, as described by Giannakakou et al. ((1997) J. Biol. Chem. 272:17118-17125).

1A9-A8^E cells [6] = assay: cells; format: cell-based, human; conditions: for pIC50: 1A9-A8^E cells, 72 hour exposure to the drug; for resistance of early-step isolate 1A9-A8^E to the selecting agent: growth inhibition assays, versus parental 1A9; for Relative Resistance (1A9-A8^E): ratio of IC50 against 1A9-A8^E divided by IC50 against parental 1A9
Method: as §7, §8

1A9 cells [7] = assay: cells; format: cell-based, human; conditions: parental 1A9 cells, 72 hour exposure to the drug
Method: as §7, §8

tubulin [8] = assay: Cell-based tubulin polymerization assay, 1A9-A8^E cells; parameters: species or system human
Method: as §1, §2, §3

1A9-A8 cells [9] = assay: Mitotic index analysis, 1A9-A8 cells; format: cell-based, human; conditions: 24 hr
Method: as §4

1A9-A8 cells [10] = assay: Cell cycle analysis by flow cytometry (G2/M arrest), 1A9-A8 cells; format: cell-based, human
Method: as §5, §6

1A9-A8^E cells [11] = assay: Cell cycle analysis by flow cytometry (G2/M arrest), 1A9-A8^E cells; format: cell-based, human
Method: as §5, §6

[12] = tested on: human epidermoid carcinoma cell line; conditions: Thr274Pro β-tubulin mutation; cited from earlier work
1A9 cells [13] = assay: Mitotic index analysis, 1A9 cells; format: cell-based, human; conditions: 24 hr
Method: as §4

tubulin [14] = target: T2, tubulin (Homo sapiens, UniProt P07437, T274I); assay: Cell-based tubulin polymerization assay, 1A9-A8 cells
T2 construct: endogenous in cells; host or cells: 1A9-A8 cells (late-step epothilone A-resistant clone of 1A9)
T2 sequence (P07437 whole entry T274I): as the sequence (P07437 whole entry) above, with T274I counted along it
T2 sequence (P68363 whole entry partner): as the sequence (P68363 whole entry) above
Method: as §1, §2, §3

KB-3-1 epidermal cells = conditions: Asp26Glu β-tubulin mutation; cited from earlier work
[15] = tested on: human breast cancer cells; conditions: Glu198Gly β-tubulin mutation; cited from earlier work
[16] = tested on: non-small cell lung cancer (NSCLC), Hela, and human leukemia cells; conditions: Gln292Glu β-tubulin mutation; cited from earlier work
[17] = tested on: epothilone-resistant human ovarian cancer cell lines; conditions: Thr274Ile and Arg282Gln epothilone-selected ovarian lines; cited from earlier work
[18] = tested on: human ovarian cancer clones; conditions: two Taxol-selected ovarian clones, Phe270Val and Ala364Thr; cited from earlier work

SMILES: C/C(=C\c1csc(C)n1)[C@@H]1C[C@@H]2O[C@@H]2CCC[C@H](C)[C@H](O)[C@@H](C)C(=O)C(C)(C)[C@@H](O)CC(=O)O1 [Epothilone A]
fold resistance / cross-resistance [1]: 57-74 fold
effect on tubulin polymerization (tubulin [2]; 1A9 cells, escalating doses): dose-dependent increase in tubulin polymerization
percent of polymerized tubulin (% P) (tubulin [2]; parental 1A9 cells, 150 nM): 90%
Mitotic Index (%) (1A9-A8^E cells [3]; 10 nM): 39%
Mitotic Index (%) (1A9-A8^E cells [3]; 100 nM): 47%
G2/M arrest (1A9 cells [4]; Epo A overnight treatment): complete G2/M arrest
pIC50 (1A9-A8 cells [5]): 6.90
resistance of late-step 1A9-A8 clone to the selecting agent (1A9-A8 cells [5]; growth inhibition assays, versus parental 1A9): 40 fold
Relative Resistance (1A9-A8) (1A9-A8 cells [5]): 39
pIC50 (1A9-A8^E cells [6]): 7.49
resistance of early-step isolate 1A9-A8^E to the selecting agent (1A9-A8^E cells [6]): 10 fold
resistance of early-step isolate 1A9-A8^E to the selecting agent (1A9-A8^E cells [6]; listed as Epo A): ten-fold
Relative Resistance (1A9-A8^E) (1A9-A8^E cells [6]): 10
pIC50 (1A9 cells [7]): 8.49
effect on tubulin polymerization (tubulin [8]; 1A9-A8^E cells, escalating doses): intermediate degree of tubulin polymerization
percent of polymerized tubulin (% P) (tubulin [8]; early-step 1A9-A8^E cells, 150 nM): 70%
Mitotic Index (%) (1A9-A8 cells [9]; 10 nM): 2.7%
Mitotic Index (%) (1A9-A8 cells [9]; 100 nM): 6.1%
G2/M arrest (1A9-A8 cells [10]; Epo A overnight treatment, even at the highest concentration): failed to arrest in mitosis; also recorded: no change was observed in the cell cycle profile
G2/M arrest (1A9-A8^E cells [11]; Epo A overnight treatment): partially arrested in G2/M; also recorded: modest G2/M arrest
fold resistance / cross-resistance [12]: 45 fold
Mitotic Index (%) (1A9 cells [13]; 10 nM): 82%
Mitotic Index (%) (1A9 cells [13]; 100 nM): 96%
effect on tubulin polymerization (tubulin [14]; 1A9-A8 cells, up to highest drug concentration (1500 nM)): almost no effect on tubulin polymerization
percent of polymerized tubulin (% P) (tubulin [14]; late-step 1A9-A8 cells, 150 nM): 3%

SMILES: C/C(=C\c1csc(C)n1)[C@@H]1C[C@@H]2O[C@]2(C)CCC[C@H](C)[C@H](O)[C@@H](C)C(=O)C(C)(C)[C@@H](O)CC(=O)O1 [Epothilone B]
fold resistance / cross-resistance [1]: 24-53 fold
fold resistance / cross-resistance (KB-3-1 epidermal cells): minimal cross-resistance
pIC50 (1A9-A8 cells [5]): 7.54
Relative Resistance (1A9-A8) (1A9-A8 cells [5]): 32
pIC50 (1A9-A8^E cells [6]): 8.10
Relative Resistance (1A9-A8^E) (1A9-A8^E cells [6]): 9
pIC50 (1A9 cells [7]): 9.05
fold resistance / cross-resistance [12]: 8 fold

pIC50 (1A9-A8 cells [5]; Homo sapiens): 7.82
pIC50 (1A9-A8^E cells [6]; Homo sapiens): 8.05
SMILES: CC(=O)O[C@H]1C(=O)[C@@]2(C)[C@H]([C@H](OC(=O)c3ccccc3)[C@]3(O)C[C@H](OC(=O)[C@H](O)[C@@H](NC(=O)c4ccccc4)c4ccccc4)C(C)=C1C3(C)C)[C@]1(OC(C)=O)CO[C@@H]1C[C@@H]2O [Paclitaxel]
fold resistance / cross resistance [15]: 17 fold
fold resistance / cross-resistance (KB-3-1 epidermal cells): 18 fold
Relative Resistance (1A9-A8) (1A9-A8 cells [5]): 10
Relative Resistance (1A9-A8^E) (1A9-A8^E cells [6]): 6
pIC50 (1A9 cells [7]; Homo sapiens): 8.82
fold resistance / cross-resistance [16]: 22 fold
cross-resistance [17]: 7-10 fold
fold resistance / cross-resistance [12]: 96 fold
fold resistance (IC50 resistant line over IC50 parental line) [18]: 30 fold

SMILES: CC(=O)O[C@@]12CO[C@@H]1C[C@H](O)[C@@]1(C)C(=O)[C@H](O)C3=C(C)[C@@H](OC(=O)[C@H](O)[C@@H](NC(=O)OC(C)(C)C)c4ccccc4)C[C@@](O)([C@@H](OC(=O)c4ccccc4)[C@H]21)C3(C)C [Taxotere]
fold resistance / cross resistance [15]: some cross resistance
fold resistance / cross-resistance (KB-3-1 epidermal cells): 10 fold
fold resistance / cross-resistance [16]: 13 fold

SMILES: CC[C@]1(O)C[C@H]2CN(CCc3c([nH]c4ccccc34)[C@@](C(=O)OC)(c3cc4c(cc3OC)N(C=O)[C@H]3[C@@](O)(C(=O)OC)[C@H](OC(C)=O)[C@]5(CC)C=CCN6CC[C@]43[C@@H]65)C2)C1 [Vincristine]
G2/M arrest (1A9 cells [4]; 10 nM): G2/M arrest
G2/M arrest (1A9-A8 cells [10]; 10 nM): arrested in G2/M
G2/M arrest (1A9-A8 cells [10]; 10 nM, listed as vincristine): G2/M arrest
G2/M arrest (1A9-A8^E cells [11]; 10 nM): arrested in G2/M
G2/M arrest (1A9-A8^E cells [11]; 10 nM, listed as vincristine): G2/M arrest

— US20070190544A1, “Methods of screening for resistance to microtuble-targeting drugs” (Emory University, priority 2005, published 2007)
